Like-named read-outs stand apart in the source and are kept apart here.
How the values were obtained:
[1] = system: OCT2; details: cited from earlier work
[2] = system: OCT1; details: at 10 μM; cited from earlier work
[3] = system: Caco-2 cell monolayers; experiment: Cellular uptake of [14C]metformin in Caco-2 cell monolayers; assay type: in vitro ADME; details: dolutegravir 0.3-100 µM
[4] = molecular target: T1, human PMAT (Homo sapiens, UniProt Q7RTT9); experiment: Inhibition of probe substrate uptake by PMAT in transfected MDCK-II cells; assay type: in vitro ADME; details: dolutegravir ≤100 μM; 10 µM [14C]metformin
T1 sequence (Q7RTT9 1-530): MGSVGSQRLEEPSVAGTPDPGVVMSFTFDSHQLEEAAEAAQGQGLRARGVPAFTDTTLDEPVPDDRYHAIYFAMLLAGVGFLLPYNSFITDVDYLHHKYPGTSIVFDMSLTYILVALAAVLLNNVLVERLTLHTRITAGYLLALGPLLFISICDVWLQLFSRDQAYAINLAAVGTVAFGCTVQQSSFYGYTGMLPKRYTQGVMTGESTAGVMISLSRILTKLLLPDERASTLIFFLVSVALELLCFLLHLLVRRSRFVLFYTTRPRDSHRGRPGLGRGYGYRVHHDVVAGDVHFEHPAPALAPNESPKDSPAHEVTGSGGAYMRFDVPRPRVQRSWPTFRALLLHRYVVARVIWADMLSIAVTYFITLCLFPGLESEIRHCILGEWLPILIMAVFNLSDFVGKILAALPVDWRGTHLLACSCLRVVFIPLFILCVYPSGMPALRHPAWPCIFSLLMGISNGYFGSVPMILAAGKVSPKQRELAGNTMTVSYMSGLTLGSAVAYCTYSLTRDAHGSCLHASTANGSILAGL

[5] = system: OCT2; details: cited from earlier work; remark: listed apart in the source
[6] = molecular target: T2, human OCT3 (Homo sapiens, UniProt O75751); experiment: Inhibition of probe substrate uptake by OCT3 in transfected MDCK-II cells; assay type: in vitro ADME; details: dolutegravir ≤10 μM; 10 µM [14C]metformin
T2 sequence (O75751 1-556): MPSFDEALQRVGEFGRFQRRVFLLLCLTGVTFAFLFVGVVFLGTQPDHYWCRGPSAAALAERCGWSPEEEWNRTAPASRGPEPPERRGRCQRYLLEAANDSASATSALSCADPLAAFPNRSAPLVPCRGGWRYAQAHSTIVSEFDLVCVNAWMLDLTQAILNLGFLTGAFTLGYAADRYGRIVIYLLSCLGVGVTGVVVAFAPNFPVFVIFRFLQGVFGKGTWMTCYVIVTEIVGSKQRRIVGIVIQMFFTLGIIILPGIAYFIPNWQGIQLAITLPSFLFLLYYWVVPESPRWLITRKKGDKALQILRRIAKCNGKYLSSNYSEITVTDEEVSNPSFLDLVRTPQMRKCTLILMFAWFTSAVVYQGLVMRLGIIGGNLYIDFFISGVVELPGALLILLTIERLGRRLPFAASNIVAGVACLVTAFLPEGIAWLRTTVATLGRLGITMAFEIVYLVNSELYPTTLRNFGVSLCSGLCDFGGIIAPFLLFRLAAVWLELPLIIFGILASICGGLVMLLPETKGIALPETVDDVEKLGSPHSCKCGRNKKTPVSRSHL

[7] = cited from earlier work
[8] = Safety monitoring: drug-related adverse events in healthy subjects; assay type: in vivo, human; details: metformin 500 mg q12h alone or with dolutegravir 50 mg q24h or q12h
[9] = assay type: in vivo, human; details: for Metformin t(1/2) with vs without co-administration of dolutegravir: dolutegravir 50 mg q24h or q12h
[10] = co-administration of cimetidine

Which results are given for `C[C@@H]1CCO[C@H]2Cn3cc(C(=O)NCc4ccc(F)cc4F)c(=O)c(O)c3C(=O)N12` [Dolutegravir]?
IC50 ([1]; read-out: IC50 for OCT2): 1900 nM; IC50 ([1]; read-out: OCT2 inhibitory potency, tetraethylammonium as the substrate): 66 nM; Inhibition of OCT1 [2]: 22%; Effect on cellular uptake of metformin in the Caco-2 intestinal cell line [3]: unaffected; Inhibition of [14C]metformin uptake by PMAT [4]: no inhibition; Dolutegravir free fraction [5]: ≥ 1.1%; Cmax ([5]; read-out: Dolutegravir Cmax, twice daily dosing): 13 µM; Inhibition of [14C]metformin transport by OCT3 [6]: no inhibition

What does the source list for `CN(C)C(=N)N=C(N)N` [Metformin]?
Fraction of drug excreted unchanged in the urine ([7]; within 24 hours, oral and intravenous administration): 90%; Tolerability [8]: well tolerated; Decrease in metformin CL/F ([9]; co-administration of dolutegravir 50 mg q12h): 59%; Decrease in metformin CL/F ([9]; co-administration of dolutegravir 50 mg q24h): 44%; Metformin t(1/2) with vs without co-administration of dolutegravir [9]: unchanged; Metformin t(1/2) with vs without co-administration of dolutegravir ([9]; listed as metformin): similar

With `CN/C(=N/CCSCc1nc[nH]c1C)NC#N` [Cimetidine] as the compound, how does the “Increase in metformin AUC” value [7, 10] read?
Its value is 40%.

And the “Increase in metformin peak concentration” value [7, 10]?
The value was 60%.
